Reference: patent US9226501B2, “Pesticidal compositions and processes related thereto” (Dow AgroSciences LLC, priority 2012, dated 2016)

Key:
[1] = tested on: Cabbage Looper (CL) (Trichoplusia ni); test: Bioassay on cabbage looper (CL), 128-well diet tray assay; type: in vivo; details: for CL Rating: Table 5, prophetic compounds subsequently exemplified, cabbage looper; for pest or weed control at 50 µg/cm2: Trichoplusia ni, 168 h, % mortality, second instar larvae, 50 μg/cm^2 on artificial diet, five to seven days, 25° C., read-out: CL Rating
Experimental: (§1) Certain molecules disclosed in this document were tested against BAW, CEW and CL using procedures described in the following examples. In the reporting of the results, the “BAW & CEW & CL Rating Table” was used (See Table Section).
Bioassays on CL were conducted using a 128-well diet tray assay. One to five second instar CL larvae were placed in each well (3 mL) of the diet tray that had been previously filled with 1 mL of artificial diet to which 50 μg/cm^2 of the test compound (dissolved in 50 μL of 90:10 acetone-water mixture) had been applied (to each of eight wells) and then allowed to dry. Trays were covered with a clear self-adhesive cover, and held at 25° C., 14:10 light-dark for five to seven days. Percent mortality was recorded for the larvae in each well; activity in the eight wells was then averaged. The results are indicated in the table entitled “Table 4: Assay Results Part 2” (See Table Section).

[2] = tested on: Beet Armyworm (BAW) (spodoptera exigua); test: Bioassay on beet armyworm (BAW), 128-well diet tray assay; type: in vivo; details: for BAW Rating: Table 5, prophetic compounds subsequently exemplified, beet armyworm; for pest or weed control at 50 µg/cm2: Spodoptera exigua, 168 h, % mortality, second instar larvae, 50 μg/cm^2 on artificial diet, five to seven days, 25° C., read-out: BAW Rating
Experimental: as §1
Bioassays on BAW were conducted using a 128-well diet tray assay. One to five second instar BAW larvae were placed in each well (3 mL) of the diet tray that had been previously filled with 1 mL of artificial diet to which 50 μg/cm^2 of the test compound (dissolved in 50 μL of 90:10 acetone-water mixture) had been applied (to each of eight wells) and then allowed to dry. Trays were covered with a clear self-adhesive cover, and held at 25° C., 14:10 light-dark for five to seven days. Percent mortality was recorded for the larvae in each well; activity in the eight wells was then averaged. The results are indicated in the tables entitled “Table 3: Assay Results Part 1” and “Table 4: Assay Results Part 2” (See Table Section).

Row | SMILES | CL Rating [1] | BAW Rating [2] | pest or weed control at 50 µg/cm2 [1] [%] | pest or weed control at 50 µg/cm2 [2] [%]
1 | C[C@@H](NC(=O)c1ccc(/C=C/C(c2ccc(Cl)c(Cl)c2)C(F)(F)F)cc1Br)C(=O)NCC(F)(F)F (stereo partly drawn) [P1806] | A (50-100) | A (50-100) |  | 
2 | O=C(CNC(=O)c1ccc(/C=C/C(c2cc(Cl)c(Cl)c(Cl)c2)C(F)(F)F)cc1I)NCC(F)(F)F (stereo not drawn) [FA24] |  |  | 50 to 100 | 50 to 100
3 | CC(C)(C)CNC(=O)C(C)(C)NC(=O)c1ccc(/C=C/C(c2cc(Cl)c(Cl)c(Cl)c2)C(F)(F)F)cc1Br (stereo not drawn) [FA15] |  |  | 50 to 100 | 50 to 100
4 | C[C@@H](NC(=O)c1ccc(/C=C/C(c2cccc(OC(F)(F)F)c2)C(F)(F)F)cc1Br)C(=O)NCC(F)(F)F (stereo partly drawn) [P226] | A (50-100) | A (50-100) |  | 
5 | C[C@@H](NC(=O)c1ccc(/C=C/C(c2cc(Br)cc(Br)c2)C(F)(F)F)cc1C(F)(F)F)C(=O)NCC(F)F (stereo partly drawn) [P2038] | A (50-100) | A (50-100) |  | 
6 | CC(NC(=O)c1ccc(/C=C/C(c2cc(Cl)c(Cl)c(Cl)c2)C(F)(F)F)cc1C(F)(F)F)C(=O)NCCF (stereo not drawn) [P1618A, (E)-N-(1-((2-Fluoroethyl)amino)-1-oxopropan-2-yl)-4-(4,4,4-trifluoro-3-(3,4,5-trichlorophenyl)but-1-en-1-yl)-2-(trifluoromethyl)benzamide] | A (50-100) | A (50-100) |  | 
7 | Nc1cc(/C=C/C(c2cc(Cl)c(F)c(Cl)c2)C(F)(F)F)ccc1C(=O)NCC(=O)NCC(F)(F)F (stereo not drawn) [FA6] |  |  | 50 to 100 | 50 to 100
8 | O=C(NCC(=S)NCC(F)(F)F)c1ccc(/C=C/C(c2cc(Cl)c(F)c(Cl)c2)C(F)(F)F)cc1C(F)(F)F (stereo not drawn) [P1866] | A (50-100) | A (50-100) |  | 
9 | O=C(CNC(=O)c1ccc(/C=C/C(c2cc(Cl)c(Cl)c(Cl)c2)C(F)(F)F)cc1C(F)(F)F)NCC(F)(F)F (stereo not drawn) [P1556] | A (50-100) | A (50-100) |  | 
10 | C=Cc1cc(/C=C/C(c2cc(Cl)c(Cl)c(Cl)c2)C(F)(F)F)ccc1C(=O)N[C@H](C)C(=O)NCC(F)(F)F (stereo partly drawn) [FA17] |  |  | 50 to 100 | 50 to 100
11 | C[C@@H](NC(=O)c1ccc(/C=C/C(c2cc(Cl)c(Br)c(Cl)c2)C(F)(F)F)cc1Br)C(=O)NCC(F)(F)F (stereo partly drawn) [FA22] |  |  | 50 to 100 | 50 to 100
12 | O=C(CNC(=O)c1ccc(/C=C/C(c2cc(Br)cc(Br)c2)C(F)(F)F)cc1C(F)(F)F)NCC(F)(F)F (stereo not drawn) [P1971] | A (50-100) | A (50-100) |  | 
13 | C[C@@H](NC(=O)c1ccc(/C=C/C(c2ccc(Cl)c(Cl)c2)C(C)(F)F)cc1Br)C(=O)NCC(F)(F)F (stereo partly drawn) [FA29] |  |  | 50 to 100 | 50 to 100
14 | CC(NC(=O)c1ccc(/C=C/C(c2cc(Cl)c(Cl)c(Cl)c2)C(F)(F)F)cc1Br)C(=O)NCC(F)F (stereo not drawn) [P1611A] | A (50-100) | A (50-100) |  | 
15 | Cc1ccc(C(/C=C/c2ccc(C(=O)N[C@H](C)C(=O)NCC(F)(F)F)c(C(F)(F)F)c2)C(F)(F)F)cc1Cl (stereo partly drawn) [P444] | A (50-100) | A (50-100) |  | 
16 | CCNC(=O)[C@@H](C)NC(=O)c1ccc(/C=C/C(c2cc(Cl)c(Cl)c(Cl)c2)C(F)(F)F)cc1C (stereo partly drawn) [P1624] | A (50-100) | A (50-100) |  | 
17 | O=C(CCNC(=O)c1ccc(/C=C/C(c2cc(Cl)c(Cl)c(Cl)c2)C(F)(F)F)cc1Br)NCC(F)(F)F (stereo not drawn) [P1638] | A (50-100) | A (50-100) |  | 
18 | CC(C)(NC(=O)c1ccc(/C=C/C(c2cc(Cl)c(Cl)c(Cl)c2)C(F)(F)F)cc1Br)C(=S)NCC(F)(F)F (stereo not drawn) [FA11] |  |  | 50 to 100 | 0 to 50
19 | C[C@@H](NC(=O)c1ccc(/C=C/C(c2cc(Cl)cc(Cl)c2)C(F)(F)C(F)(F)F)cc1Br)C(=O)NCC(F)(F)F (stereo partly drawn) [P1691] | A (50-100) | A (50-100) |  | 
20 | CC(C)(NC(=O)c1ccc(/C=C/C(c2cc(Cl)c(Cl)c(Cl)c2)C(F)(F)F)cc1Br)C(=O)NCC#N (stereo not drawn) [FA14] |  |  | 50 to 100 | 50 to 100

Row | SMILES | CL Rating [1] | BAW Rating [2] | pest or weed control at 50 µg/cm2 [1] [%] | pest or weed control at 50 µg/cm2 [2] [%]
21 | CC(C)(NC(=O)c1ccc(/C=C/C(c2cc(Cl)c(Cl)c(Cl)c2)C(F)(F)F)cc1Cl)C(=S)NCC(F)(F)F (stereo not drawn) [FA9] |  |  | 50 to 100 | 50 to 100
22 | Cc1cc(C(/C=C/c2ccc(C(=O)N[C@H](C)C(=O)NCC(F)(F)F)c(Br)c2)C(F)(F)F)ccc1F (stereo partly drawn) [P1090] | A (50-100) | A (50-100) |  | 
23 | C[C@@H](NC(=O)c1ccc(/C=C/C(c2cc(Cl)c(Br)c(Cl)c2)C(F)(F)F)cc1C(F)(F)F)C(=O)NCC(F)(F)F (stereo partly drawn) [FA21] |  |  | 50 to 100 | 50 to 100
24 | CC(NC(=O)c1ccc(/C=C/C(c2cc(Cl)c(Cl)c(Cl)c2)C(F)(F)F)cc1Br)C(=O)NCCF (stereo not drawn) [P1616A] | A (50-100) | A (50-100) |  | 
25 | CC(C)[C@@H](NC(=O)c1ccc(/C=C/C(c2cc(Cl)c(Cl)c(Cl)c2)C(F)(F)F)cc1C(F)(F)F)C(=O)NCC(F)(F)F (stereo partly drawn) [FA33] |  |  | 50 to 100 | 50 to 100
26 | O=C(CNC(=O)c1ccc(/C=C/C(c2cccc(C(F)(F)F)c2)C(F)(F)F)cc1Br)NCC(F)(F)F (stereo not drawn) [P1] | A (50-100) | A (50-100) |  | 
27 | C[C@@H](NC(=O)c1ccc(/C=C/C(c2cc(Cl)cc(Br)c2)C(F)(F)F)cc1Br)C(=O)NCC(F)(F)F (stereo partly drawn) [P586] | A (50-100) | A (50-100) |  | 
28 | Cc1cc(/C=C/C(c2cc(Br)cc(Br)c2)C(F)(F)F)ccc1C(=O)NCC(=O)NCC(F)(F)F (stereo not drawn) [P1972] | A (50-100) | A (50-100) |  | 
29 | CC(C)[C@@H](NC(=O)c1ccc(/C=C/C(c2cc(Cl)c(Cl)c(Cl)c2)C(F)(F)F)cc1Br)C(=O)NCC(F)(F)F (stereo partly drawn) [FA32] |  |  | 50 to 100 | 50 to 100
30 | CCNC(=O)[C@@H](C)NC(=O)c1ccc(/C=C/C(c2cc(Cl)c(Cl)c(Cl)c2)C(F)(F)F)cc1Br (stereo partly drawn) [P1621] | A (50-100) | A (50-100) |  | 
31 | CC(C)(NC(=O)c1ccc(/C=C/C(c2cc(Cl)c(Cl)c(Cl)c2)C(F)(F)F)cc1)C(=O)NCC(F)(F)F (stereo not drawn) [P1636] | A (50-100) | A (50-100) |  | 
32 | C[C@@H](NC(=O)c1ccc(/C=C/C(c2ccc(Cl)c([N+](=O)[O-])c2)C(F)(F)F)cc1C(F)(F)F)C(=O)NCC(F)(F)F (stereo partly drawn) [P732] | A (50-100) | A (50-100) |  | 
33 | O=C(CNC(=O)c1ccc(/C=C/C(c2cc(Cl)c(Cl)c(Cl)c2)C(F)(F)F)cc1C(F)(F)F)NCC(F)F (stereo not drawn) [P1566] | A (50-100) | A (50-100) |  | 
34 | CC(F)(F)CNC(=O)C(C)(C)NC(=O)c1ccc(/C=C/C(c2cc(Cl)c(Cl)c(Cl)c2)C(F)(F)F)cc1Br (stereo not drawn) [FA23] |  |  | 50 to 100 | 50 to 100
35 | O=C(CNC(=O)c1ccc(/C=C/C(c2cc(Cl)c(Cl)c(Cl)c2)C(F)(F)F)cc1Br)NCCC(F)(F)F (stereo not drawn) [FA7] |  |  | 50 to 100 | 50 to 100
36 | Cc1ccc(C(/C=C/c2ccc(C(=O)N[C@H](C)C(=O)NCC(F)(F)F)c(Br)c2)C(F)(F)F)cc1Cl (stereo partly drawn) [P442] | A (50-100) | A (50-100) |  | 
37 | Cc1cc(C(/C=C/c2ccc(C(=O)N[C@H](C)C(=O)NCC(F)(F)F)c(C(F)(F)F)c2)C(F)(F)F)cc(C)c1F (stereo partly drawn) [P516] | A (50-100) | A (50-100) |  | 
38 | CC(NC(=O)c1ccc(/C=C/C(c2cc(Cl)c(Cl)c(Cl)c2)C(F)(F)F)cc1C(F)(F)F)C(=O)NCC(F)F (stereo not drawn) [P1613A] | A (50-100) | A (50-100) |  | 
39 | C[C@@H](NC(=O)c1ccc(/C=C/C(c2cc(Cl)c(Cl)c(Cl)c2)C(F)(F)C(F)(F)F)cc1C(F)(F)F)C(=O)NCC(F)(F)F (stereo partly drawn) [P1601] | A (50-100) | A (50-100) |  | 
